Literature values, collected in publication PMC2970513 (Chemical biology & drug design, 2009).

Tested on: μ receptor
Conditions: compared with the N-methylated cyclic peptides of this paper

## H-Tyr-D-Ala(NMe)-Phe-Sar-NH2
  μ receptor binding affinity, fold lower than those of the N-methylated cyclic peptides described here: 30-80 fold
